Data published in publication PMC5570892, “Indole-based perenosins as highly potent HCl transporters and potential anti-cancer agents” (Scientific Reports, 2017).

How the values were obtained:
[1] = Cationophore coupled KCl efflux ISE assay (valinomycin or monensin); type: biochemical; settings: perenosins 0.1 mol%, prodigiosin 0.01 mol%, monensin 0.1 mol%, pH 7.2
Method: Herein, we employed two recently reported complementary cationophore coupled assays[19] to unambiguously confirm H^+/Cl^− symport facilitated by perenosins is a strictly inseparable process. Briefly, unilamellar vesicles were prepared with an internal solution of KCl (300 mM) and an external solution of K2SO4 (150 mM), buffered to pH 7.2 with potassium phosphate salts (5 mM). The naturally occurring cationophores valinomycin and monensin were either added alone, or in combination with a perenosin and the resulting chloride efflux, driven by a large chloride concentration gradient, was monitored using a chloride ISE. […] In contrast, monensin functions as an electroneutral transporter. […]
Figure S130. […] The final chloride efflux reading was taken a t 9 mins and was used as the 100% chloride efflux value. […]
The lipid stock solution was diluted with the external buffer solution to a standard volume (5 mL), to afford a solution with a lipid concentration of 1 mM. […] The compounds were added as a DMSO solution (0.1 mol% (with respect to lipid), 10 μL) to start the experiment and the resulting chloride efflux was monitored using a chloride selective electrode over 5 minutes. After this time, detergent (50 μL of Triron X-100 (11 w%) in H2O:DMSO (7:1 v/v)) was added to lyse the vesicles and after 7 minutes a final chloride efflux reading was taken. […]

[2] = Stability in aqueous solution by UV-Vis; type: physicochemical; settings: hexafluorophosphate buffered DMSO:water 50:50, pH 7.4, after 6 hours
Method: S7.1 Stability in Aqueous Solution
Stability studies were performed for the perenosins in aqueous solution using UV-Vis spectroscopy to probe the lifetime of compounds 1d and 2-8 over the course of the transport experiments. The receptors (10 μL, 25 mM) were added to a hexafluorophosphate buffered (100 mM) DMSO:water 50:50 solution (4990 μL) and the pH was adjusted to either 7.2 or 4.6 using hexafluorophosphoric acid. Spectra were collected at 1 minute intervals over a period of 30 minutes.
Figure S50. Absorbance spectra taken over 30 minutes of 1d (25 mM) in a hexafluorophosphate buffered (100 mM) DMSO:water 50:50 mixture. a) pH 7.2 b) pH 4.6 […]
Figure S51. Absorbance spectra taken over 30 minutes of 2 (25 mM) in a hexafluorophosphate […]
The spectra obtained at pH 7.2 for compounds 1d and 2-8 show no notable change in the […]
conditions. However, the spectra obtained at pH 4.6 for compounds 1d and 2-4 show a decreasing peak at ~400 nm corresponding to the perenosins, and an increasing peak at ~300 nm corresponding to the breakdown product (both are marked with an arrow). The change in spectra […]
Spectra were collected periodically over 72 hours to monitor the change in the UV -vis absorbance.
Figure S58. Absorbance spectra taken periodically over 72 hours of 1d (25 mM) in a hexafluorophosphate buffered (100 mM) DMSO:water 50:50 mixture at pH 7.4 […]

[3] = system: MDA-MB-231 cells; test: Annexin-V flow cytometric apoptosis assay; type: cell-based, human
Method: The specific late onset of affecting cell viability induced by perenosins is interesting, and to the best of our knowledge this phenomenon has not been observed for other anion transporters. […] It is known that synthetic transporters can disrupt ion homeostasis in cells and induce cell death via an apoptotic pathway, [22], [32], [63], [64].
S11.3 Apoptosis Evaluation through Annexin-V Assay
MDA-MB-231 cells (1x10^5 cells) were seeded in 6-well plates and, after 24 h, they were treated with […]
Afterwards, cells were detached, centrifuged at 300 g for 5 min and resuspended in 1 ml of 1X PBS-1% FBS. Then, 100 µl of cell suspension were mixed with Annexin-V kit buffer (1:1; Muse Annexin V & Dead Cell Assay, Merck Millipore, Merck KGaA, Darmstadt, Germany). After 20 min incubation at room temperature, cells were examined on the Muse™ Cell Analyzer (Merck Millipore). All the conditions were assessed in three independent experiments. Results are shown as the mean value ± S.D. and representative results are shown in the […]
Figure S154. Flow cytometry of MDA-MB-231 cells treated with IC50 concentrations of compound 2 and 6 for 48 and 72 hours plus 10 µM of compound 6 for 72 h. Axes show Annexin-V binding versus […]
(1 picture or pasted object on this page, not shown here)

Structure (SMILES)	chloride efflux coupled to monensin [1]	solubility during 72 h stability study [2]	apoptosis induction (Annexin-V) ([3]; 10 µM)	apoptosis induction (Annexin-V) ([3]; at IC50 value, 48 h and 72 h)
CCCCCc1cc2cc(C)cc(/N=C/c3[nH]c4ccccc4c3C)c2[nH]1 [Perenosin 8]	do not facilitate chloride transport	–	–	–
CCCCCc1cc(/N=C/c2[nH]c3ccccc3c2C)c2[nH]ccc2c1 [Perenosin 7]	do not facilitate chloride transport	–	–	–
CCCCCc1cc2cc(C)cc(/N=C/c3[nH]c(C)c(CCCCC)c3C)c2[nH]1 [Perenosin 6]	–	poor solubility	increase in both early and late apoptotic cell populations	slight increase in apoptotic cells
CCCCCc1cc2cc(C)cc(/N=C/c3[nH]c(C)cc3C)c2[nH]1 [Perenosin 2]	–	–	–	clearly induces cell death by apoptosis
